Test results from patent US20260216348A1, “IRAK DEGRADATION AGENT AND USE THEREOF” (Increland, priority 2023, published 2026).

Test system: CIA-induced rheumatoid arthritis model
Test: CIA-induced rheumatoid arthritis model
Assay type: in vivo, DBA/1J mice
Conditions: QD, Model 12.31 ± 2.97, Mean ± SD, n = 7
Protocol: 1. DBA/1J mice, male, SPF grade, were pre-acclimatized in the animal facility for one week. 2. On day 1, for the primary immunization, 2 mg/mL bovine type II collagen was mixed thoroughly with an equal volume of complete Freund's adjuvant on ice using a homogenizer until fully emulsified. 100 μL of the collagen emulsion (final concentration 1 mg/mL) was intradermally injected at 2 cm from the base of the mouse tail. Medical iodophor was used to disinfect the tail after injection to prevent tail necrosis, which was conducted for 3 consecutive days. 3. On day 21, bovine type II collagen solution was thoroughly mixed and emulsified with an equal volume of Freund's incomplete adjuvant, using the same method as the primary immunization. 4. On day 26, LPS was administered intraperitoneally at a dose of 50 μg/animal to induce disease. 5. On day 28, the affected mice were scored according to Table 33 and the diameter of their ankle joints was measured. Mice were randomly grouped and treated with medication based on their scores and ankle diameter.

With `CN(C)c1cc2nn([C@H]3CC[C@H](CN4CC[C@@H](n5cc6cc(C7CCC(=O)NC7=O)c(F)cc6n5)[C@@H](F)C4)CC3)cc2cc1NC(=O)c1cnn2cccnc12` (some centres unmarked) [TM-135] the “DAI Score d 42” value (15 mg/kg) was 11.17 ± 2.36 and the “DAI Score d 42” value (45 mg/kg) was 9.60 ± 3.33.
